Data taken from ChEMBL document CHEMBL1833806, “Mapping the intestinal alpha-glucogenic enzyme specificities of starch digesting maltase-glucoamylase and sucrase-isomaltase” (Bioorg Med Chem, 2011).

What was measured:
[1] = Selectivity ratio of Ki for human ntSI to Ki for mouse ctMGAM-N2
[2] = Inhibition of human ntSI expressed in Drosophila S2 cells assessed as amount of glucose produced using maltose as a substrate after 45 mins by glucose oxidase assay; type: cell-based
[3] = Inhibition of human ntMGAM expressed in Drosophila S2 cells assessed as amount of glucose produced using maltose as a substrate after 45 mins by glucose oxidase assay; type: cell-based
[4] = Selectivity ratio of Ki for human ntMGAM to Ki for mouse ctMGAM-N2
Mus musculus [5] = species on record: Mus musculus; assay: Selectivity ratio of Ki for mouse ctMGAM-N20 to Ki for mouse ctMGAM-N2
[6] = Inhibition of mouse his-tagged ctMGAM-N20 expressed in Sf9 cells assessed as amount of glucose produced using maltose as a substrate after 45 mins by glucose oxidase assay
Mus musculus [7] = species on record: Mus musculus; assay: Selectivity ratio of Ki for mouse ctSI to Ki for mouse ctMGAM-N2
[8] = Inhibition of mouse his-tagged ctMGAM-N2 expressed in Sf9 cells assessed as amount of glucose produced using maltose as a substrate after 45 mins by glucose oxidase assay
[9] = Inhibition of mouse his-tagged ctSI expressed in Sf9 cells assessed as amount of glucose produced using maltose as a substrate after 45 mins by glucose oxidase assay
[10] = Activity of mouse his-tagged ctMGAM-N2 expressed in Sf9 cells assessed as amount of glucose produced after 45 mins by glucose oxidase assay
Mus musculus [11] = species on record: Mus musculus; assay: Ratio of Km for mouse ctMGAM-N20 to Km for mouse ctMGAM-N2
[12] = Activity of mouse his-tagged ctMGAM-N2 expressed in Sf9 cells assessed as amount of glucose produced using maltose as a substrate after 45 mins by glucose oxidase assay
[13] = Activity of human ntSI expressed in Drosophila S2 cells assessed as amount of glucose produced after 45 mins by glucose oxidase assay; type: cell-based
[14] = Activity of mouse his-tagged ctMGAM-N20 expressed in Sf9 cells assessed as amount of glucose produced using maltose as a substrate after 45 mins by glucose oxidase assay
[15] = Activity of mouse his-tagged ctSI expressed in Sf9 cells assessed as amount of glucose produced after 45 mins by glucose oxidase assay
[16] = Activity of human ntMGAM expressed in Drosophila S2 cells assessed as amount of glucose produced after 45 mins by glucose oxidase assay; type: cell-based
[17] = Activity of mouse his-tagged ctMGAM-N20 expressed in Sf9 cells assessed as amount of glucose produced after 45 mins by glucose oxidase assay
[18] = Selectivity ratio of Ki for human ntSI to Ki for mouse ctMGAM-N20
[19] = Selectivity ratio of Ki for human ntMGAM to Ki for mouse ctMGAM-N20
Mus musculus [20] = species on record: Mus musculus; assay: Selectivity ratio of Ki for mouse ctMGAM-N2 to Ki for mouse ctMGAM-N20
Mus musculus [21] = species on record: Mus musculus; assay: Selectivity ratio of Ki for mouse ctMGAM-N2 to Ki for mouse ctSI
[22] = Selectivity ratio of Ki for human ntMGAM to Ki for mouse ctSI
[23] = Selectivity ratio of Ki for human ntSI to Ki for mouse ctSI
Mus musculus [24] = species on record: Mus musculus; assay: Selectivity ratio of Ki for mouse ctSI to Ki for mouse ctMGAM-N20
Homo sapiens = species on record: Homo sapiens; assay: Selectivity ratio of Ki for human ntMGAM to Ki for human ntSI

| SMILES | Ratio Ki [4] | Ratio Ki [19] | Ratio Ki [22] | Ki [2] | Ki [3] | Ki [6] | Ki [8] | Ki [9] | other results |
| --- | --- | --- | --- | --- | --- | --- | --- | --- | --- |
| O=S(=O)([O-])O[C@@H](CO)[C@H](O)C[Se+]1C[C@@H](O)[C@H](O)[C@H]1CO (stereo not given in full) [BLINTOL] | 10 | – | – | 160 nM | 490 nM | 13 nM | 18 nM | 29 nM | Ratio Ki [1]: 10; Ratio Ki (Mus musculus [5]): 10; Ratio Ki (Mus musculus [7]): 10 |
| OC[C@@H]1[C@@H](O)[C@H](O)C[S+]1C[C@@H](O)[C@@H](O)[C@H](O)[C@H](O)[C@@H](O)CO (stereo not given in full) [DE-O-SULFONATED KOTALANOL] | – | – | – | 12 nM | 30 nM | 78 nM | 26 nM | 26 nM | – |
| O=S(=O)([O-])O[C@@H]([C@H](O)[C@H](O)[C@@H](O)CO)[C@H](O)C[S+]1C[C@@H](O)[C@H](O)[C@H]1CO (stereo not given in full) [KOTALANOL] | – | – | – | 600 nM | 190 nM | 92 nM | 64 nM | 42 nM | – |
| OC[C@H]1O[C@H](O[C@H]2[C@H](O)[C@@H](O)[C@H](O)O[C@@H]2CO)[C@H](O)[C@@H](O)[C@@H]1O [MALTOSE] | – | – | – | – | – | – | – | – | Km [10]: 1590 µM; Ratio (Mus musculus [11]): 4; Km [12]: 1590 µM; Km [13]: 7100 µM; Km [14]: 1910 µM; Km [15]: 2500 µM; Km [16]: 4300 µM; Km [17]: 1910 µM; Km [9]: 2500 µM |
| C[C@H]1O[C@H](O[C@H]2[C@H](O)[C@@H](O)[C@@H](O[C@H]3[C@H](O)[C@@H](O)C(O)O[C@@H]3CO)O[C@@H]2CO)[C@H](O)[C@@H](O)[C@@H]1N[C@H]1C=C(CO)[C@@H](O)[C@H](O)[C@H]1O (stereo not given in full) [ACARBOSE] | 1000 | 1000 | 100 | 14000 nM | 62000 nM | 28 nM | 9 nM | 246 nM | Ratio Ki [18]: 1000; Ratio Ki [1]: 1000; Ratio Ki (Mus musculus [24]): 1000; Ratio Ki (Mus musculus [7]): 1000; Ratio Ki [23]: 100 |

More lines, main results first:

| Ratio Ki [4] | Ratio Ki [19] | Ratio Ki [22] | SMILES | Ki [2] | Ki [3] | Ki [6] | Ki [8] | Ki [9] | other results |
| --- | --- | --- | --- | --- | --- | --- | --- | --- | --- |
| – | 5 | 5 | O=S(=O)([O-])O[C@@H](CO)[C@H](O)C[S@+]1C[C@@H](O)[C@H](O)[C@H]1CO [SALACINOL] | 277 nM | – | 58 nM | 213 nM | 47 nM | Ratio Ki [18]: 5; Ratio Ki (Mus musculus [20]): 4; Ratio Ki (Mus musculus [21]): 5; Ratio Ki [23]: 5 |
| 4 | 4 | 4 | OCCN1C[C@H](O)[C@@H](O)[C@H](O)[C@H]1CO [MIGLITOL] | 148 nM | 1000 nM | 230 nM | 211 nM | 130 nM | Ratio Ki (Homo sapiens): 4 |
